≈ marks a conversion by molar mass, not a printed value. Where two headings read alike, the source gives them in different places.
Key:
[1] = tested on: A. baumannii A489; assay: MIC without and with sub-inhibitory polymyxin B (Example 4); assay type: cell-based, Acinetobacter baumannii; conditions: for MIC without PB/MIC + PB: A. baumannii A489; for MIC: Acinetobacter baumannii
[2] = tested on: A. baumannii A472; assay: as above; assay type: cell-based, Acinetobacter baumannii; conditions: for MIC: Acinetobacter baumannii
[3] = tested on: A. baumannii A401; assay: as above; assay type: cell-based, Acinetobacter baumannii; conditions: A baumannii A 401; ratio, PB 0.06 μg/ml; 1st experiment
[4] = tested on: A. baumannii A473; assay: as above; assay type: cell-based, Acinetobacter baumannii; conditions: A. baumannii A473; +0.06 μg/ml PB; 2nd experiment
[5] = tested on: A. baumannii A472; assay: Preliminary MBC without and with sub-inhibitory polymyxin B (Example 4); assay type: cell-based, Acinetobacter baumannii; conditions: Acinetobacter baumannii, A472, A. baumannii A472; +[…] PB; preliminary MBC; 2nd experiment; read-out: MBC
[6] = tested on: A. baumannii NCTC 13301; assay: MIC without and with sub-inhibitory polymyxin B (Example 4); assay type: cell-based, Acinetobacter baumannii
[7] = tested on: A. baumannii ATCC 19606; assay: as above; assay type: cell-based, Acinetobacter baumannii; conditions: A. baumannii ATCC 19606
[8] = tested on: A. baumannii NCTC 13301; assay: as above; assay type: cell-based, Acinetobacter baumannii; conditions: +[…] PB, 2nd experiment
[9] = tested on: A. baumannii J2; assay: Preliminary MBC without and with sub-inhibitory polymyxin B (Example 4); assay type: cell-based, Acinetobacter baumannii; conditions: Acinetobacter baumannii
[10] = tested on: A. baumannii A401; assay: as above; assay type: cell-based, Acinetobacter baumannii; conditions: Acinetobacter baumannii, A401, A baumannii A 401, +0.06 μg/ml PB, 2nd experiment, read-out: MBC
[11] = tested on: Acinetobacter sp. (H064200250); assay: MIC without and with sub-inhibitory polymyxin B (Example 4); assay type: cell-based
[12] = tested on: A. baumannii J2; assay: as above; assay type: cell-based, Acinetobacter baumannii; conditions: for MIC without PB/MIC + PB: A. baumannii J2; for MIC: Acinetobacter baumannii
[13] = tested on: A. baumannii A387; assay: as above; assay type: cell-based, Acinetobacter baumannii; conditions: A. baumannii A387
[14] = tested on: A. baumannii A14; assay: Preliminary MBC without and with sub-inhibitory polymyxin B (Example 4); assay type: cell-based, Acinetobacter baumannii; conditions: A. baumannii A14, +0.06 μg/ml PB, 2nd experiment
Method: (§1) The plates were incubated for 18-20 hours at 37° C. The MBC was read as the lowest concentration at which colony growth was ca. 90% less than the positive control (i.e. usually where single colonies or no colonies were observed).

[15] = tested on: A. baumannii NCTC 13301; assay: as above; assay type: cell-based, Acinetobacter baumannii; conditions: Acinetobacter baumannii, NCTC13301, A. baumannii NCTC 13301; +[…] PB; preliminary MBC; 2nd experiment; read-out: MBC
Method: as §1

[16] = tested on: A. baumannii A14; assay: MIC without and with sub-inhibitory polymyxin B (Example 4); assay type: cell-based, Acinetobacter baumannii; conditions: 1st experiment
[17] = tested on: A. baumannii A387; assay: Preliminary MBC without and with sub-inhibitory polymyxin B (Example 4); assay type: cell-based, Acinetobacter baumannii; conditions: Acinetobacter baumannii, A387, A. baumannii A387, +0.06 μg/ml PB, 2nd experiment, read-out: MBC
[18] = tested on: strains of A. baumannii and one strain of Acinetobacter sp.; assay: MIC with sub-inhibitory concentrations (0.25x MIC) of polymyxin B, panel of Acinetobacter strains (Example 4); assay type: cell-based
[19] = tested on: A. baumannii A390; assay: MIC without and with sub-inhibitory polymyxin B (Example 4); assay type: cell-based, Acinetobacter baumannii; conditions: A. baumannii A390; +0.06 μg/ml PB; 2nd experiment
[20] = tested on: A. baumannii A329; assay: Preliminary MBC without and with sub-inhibitory polymyxin B (Example 4); assay type: cell-based, Acinetobacter baumannii; conditions: Acinetobacter baumannii, A329, A. baumannii A329, +0.06 μg/ml PB, 2nd experiment, read-out: MBC
[21] = tested on: Acinetobacter sp. (H064200250); assay: as above; assay type: cell-based; conditions: Acinetobacter, Acinetobacter spp. H064200250 (OXA51); +[…] PB; preliminary MBC; 2nd experiment; read-out: MBC
Method: as §1

[22] = ratio, PB 0.06 μg/ml, 1st experiment

## C[C@H]1COc2c(N3CCN(C)CC3)c(F)cc3c(=O)c(C(=O)O)cn1c23 [Levofloxacin, reference compound]
[1]; +[…] PB, 2nd experiment
  MIC without PB/MIC + PB: 4
[1]; ratio, PB […], 1st experiment
  MIC without PB/MIC + PB: 2
[1]; A489, A. baumannii A489, +[…] PB, 2nd experiment, read-out: MIC
  MIC: 8 mg/L (≈ 22.1 µM)
[1]; A489, read-out: MIC +[…] PB, A. baumannii A489, +[…] polymyxin B, 1st experiment
  MIC: 8 mg/L (≈ 22.1 µM)
[2]; A. baumannii A472, ratio, PB […], 1st experiment
  MIC without PB/MIC + PB: 4
[2]; A472, A. baumannii A472, +[…] PB, 2nd experiment, read-out: MIC
  MIC: 4 mg/L (≈ 11.1 µM)
[2]; A472, read-out: MIC +[…] PB, A. baumannii A472, +[…] polymyxin B, 1st experiment
  MIC: 4 mg/L (≈ 11.1 µM)
[3]
  MIC without PB/MIC + PB: 1
[4]
  MIC without PB/MIC + PB: 1
[5]
  MBC: 4 mg/L (≈ 11.1 µM)
[6]; A. baumannii NCTC 13301, ratio, PB […], 1st experiment
  MIC without PB/MIC + PB: 2
[6]; Acinetobacter baumannii, NCTC13301, read-out: MIC +[…] PB
  MIC: 16 mg/L (≈ 44.3 µM)
[7]; +0.06 μg/ml PB, 2nd experiment
  MIC without PB/MIC + PB: 1
[7]; [22]
  MIC without PB/MIC + PB: 1
[8]; A. baumannii NCTC 13301
  MIC without PB/MIC + PB: 4
[8]; Acinetobacter baumannii, NCTC13301, A. baumannii NCTC 13301, read-out: MIC
  MIC: 8 mg/L (≈ 22.1 µM)
[9]; J2, A. baumannii J2, +[…] PB, preliminary MBC, 2nd experiment, read-out: MBC
  MBC: 4 mg/L (≈ 11.1 µM)
[9]; J2, read-out: MBC +[…] PB
  MBC: 8 mg/L (≈ 22.1 µM)
[10]
  MBC: 8 mg/L (≈ 22.1 µM)
[11]; Acinetobacter spp. H064200250 (OXA51), +[…] PB, 2nd experiment
  MIC without PB/MIC + PB: 2
[11]; Acinetobacter spp. H064200250, ratio, PB […], 1st experiment
  MIC without PB/MIC + PB: 1
[11]; Acinetobacter, Acinetobacter spp. H064200250 (OXA51), +[…] PB, 2nd experiment, read-out: MIC
  MIC: 8 mg/L (≈ 22.1 µM)
[12]; +[…] PB, 2nd experiment
  MIC without PB/MIC + PB: 8
[12]; ratio, PB […], 1st experiment
  MIC without PB/MIC + PB: 4
[12]; J2, A. baumannii J2, +[…] PB, 2nd experiment, read-out: MIC
  MIC: 4 mg/L (≈ 11.1 µM)
[12]; J2, read-out: MIC +[…] PB, A. baumannii J2, +[…] polymyxin B, 1st experiment
  MIC: 8 mg/L (≈ 22.1 µM)
[13]; +0.06 μg/ml PB, 2nd experiment
  MIC without PB/MIC + PB: 1
[13]; [22]
  MIC without PB/MIC + PB: 1
[14]
  MBC: 16.00 mg/L (≈ 44.3 µM)
[15]
  MBC: 4 mg/L (≈ 11.1 µM)
[16]; +0.06 μg/ml polymyxin B
  MIC +0.06 μg/ml PB: 32 mg/L
[16]; ratio, PB 0.06 μg/ml
  MIC without PB/MIC + PB: 1
[17]
  MBC: 4 mg/L (≈ 11.1 µM)
[18]; 1st experiment
  Range ratios MIC without PB/MIC with PB Oct. 1, 2008 n = 8: 1-4
[18]; 1st experiment, […] polymyxin B, ATCC 19606, A329, A390 and A473 not taken
  MIC range with PB (0.25x MIC) Oct. 1, 2008 n = 8: 4 to 32 mg/L
[18]; 2nd experiment
  Range ratios MIC without PB/MIC with PB Oct. 14, 2008 n = 11: 0.5-8
[18]; 2nd experiment, 0.06 μg/ml polymyxin B, all strains except the ATCC strain
  MIC range with PB (0.25x MIC) Oct. 14, 2008 n = 11: 4 to 32 mg/L
[19]
  MIC without PB/MIC + PB: 2
[20]
  MBC: 16 mg/L (≈ 44.3 µM)
[21]
  MBC: 8 mg/L (≈ 22.1 µM)

From patent US20190105367A1, “ANTIMICROBIAL 4-OXOQUINOLIZINES” (Emergent Product Development Gaithersburg Inc., priority 2011, published 2019)
